Test results published in ChEMBL document CHEMBL3808275, “Design, synthesis and SARs of novel salicylanilides as potent inhibitors of RANKL-induced osteoclastogenesis and bone resorption” (Eur J Med Chem, 2016).

What was measured:
RAW264.7 [1] = test: Cytotoxicity against mouse RAW264.7 cells assessed as reduction in cell viability at 5 uM after 24 hrs by MTT assay; assay type: cell-based; details: raw264.7, 24 h
[2] = Cytotoxicity against mouse RAW264.7 cells assessed as reduction in cell viability after 24 hrs by MTT assay; assay type: cell-based
RAW264.7 [3] = test: Inhibition of RANKL-induced osteoclast differentiation in mouse RAW264.7 cells assessed as TRAP-positive multinucleated cells level at 2.5 uM incubated with compound in presence of RANKL for 4 days by TRAP staining based light microscopic analysis relative to RANKL alone; assay type: functional; parameters: scale not given: the % may be the effect or the level left
[4] = Cytotoxicity against mouse RAW264.7 cells assessed as survival rate at 2.5 uM after 24 hrs by MTT assay; assay type: cell-based; details: read-out: Survival

Row | SMILES | Activity (RAW264.7 [1]) | CC50 at 24 h [2] [µM] | Activity (RAW264.7 [3]) [%] | viability at 24 h, 2.5 µM [4] [%]
1 | O=C1c2cc(Cl)ccc2Oc2cc([N+](=O)[O-])ccc2N1c1ccc(I)cc1F | Toxic | > 40 | 73.8 | 89.3
2 | O=C1c2ccccc2Oc2cc([N+](=O)[O-])ccc2N1c1ccc(Cl)cc1F | Toxic | > 40 | 97.1 | 103
3 | O=C1c2ccccc2Oc2cc([N+](=O)[O-])ccc2N1c1ccc(I)cc1F | Toxic | > 40 | 88.6 | 87.2
4 | O=C1c2cc(Br)ccc2Oc2cc([N+](=O)[O-])ccc2N1c1ccc(Br)cc1F | Toxic | > 40 | 84.2 | 88.7
5 | O=C1c2cc(F)ccc2Oc2cc([N+](=O)[O-])ccc2N1c1ccc(F)cc1F | Toxic | > 40 | 92.4 | 90.1
6 | O=c1oc2ccc(Br)cc2c(=O)n1-c1ccc(Cl)cc1F | Toxic | 7.5 | 67.4 | 82.1
7 | O=C(Nc1ccc(F)cc1F)c1cc(Br)ccc1O | Toxic | 13.8 | 95.2 | 91.9
8 | O=C1c2cc(Br)ccc2Oc2cc([N+](=O)[O-])ccc2N1c1ccc(F)cc1F | Toxic | > 40 | 90.1 | 94
9 | O=c1oc2ccccc2c(=O)n1-c1ccc(Cl)cc1F | Toxic | 24.4 | 71.1 | 92.5
10 | O=C(Nc1ccc(Br)cc1F)c1cc(Br)ccc1O | Toxic | 7.8 | 33.1 | 99.5
11 | O=C1c2cc(I)ccc2Oc2cc([N+](=O)[O-])ccc2N1c1ccc(F)cc1F | Toxic | > 40 | 85.4 | 98.2
12 | O=C1c2cc(Cl)ccc2Oc2cc([N+](=O)[O-])ccc2N1c1ccc(Cl)cc1F | Toxic | > 40 | 59.4 | 100
13 | O=C1c2cc(I)ccc2Oc2cc([N+](=O)[O-])ccc2N1c1ccc(I)cc1F | Toxic | > 40 | 55.7 | 98.9
14 | O=C1c2cc(Cl)ccc2Oc2cc([N+](=O)[O-])ccc2N1c1ccc(Br)cc1F | Toxic | > 40 | 77.2 | 100
15 | O=c1oc2ccc(I)cc2c(=O)n1-c1ccc(F)cc1F | Toxic | 15.7 | 84.8 | 97.5
16 | O=C(Nc1ccc(F)cc1F)c1cc(Cl)ccc1O | Toxic | 14.6 | 93.3 | 109
17 | O=C1c2cc(Br)ccc2Oc2cc([N+](=O)[O-])ccc2N1c1ccc(Cl)cc1F | Toxic | > 40 | 67.1 | 102
18 | O=C(O)c1cc(F)ccc1O | Toxic | > 40 | 90.9 | 102
19 | O=c1oc2ccc(Br)cc2c(=O)n1-c1ccc(Br)cc1F | Toxic | 7.2 | 54.9 | 103
20 | O=C1c2cc(F)ccc2Oc2cc([N+](=O)[O-])ccc2N1c1ccc(Br)cc1F | Toxic | > 40 | 88.7 | 98.8
21 | O=c1oc2ccc(I)cc2c(=O)n1-c1ccc(I)cc1F | Toxic | 7.6 | 36.1 | 107
